The values below come from ChEMBL document CHEMBL3808348, “Rational Design, Synthesis, and Biological Evaluation of 7-Azaindole Derivatives as Potent Focused Multi-Targeted Kinase Inhibitors” (J Med Chem, 2016).

What is called EC50 is the concentration that produces a half-maximal response. Broadly, the inhibition is the drop in the measured response relative to a control, in per cent.

Test [1] in a line: Antiproliferative activity against human PC3 cells after 72 hrs by MTT assay. It is filed as functional, cell-based. The settings on record: PC-3, 72 h. A general note: Tetrazolium dyes change colour on reduction, which living cells bring about.
The next test relates to NCI-H1975. The experiment in a line: Antiproliferative activity against human NCI-H1975 cells harboring EGFR L858R/T790M double mutant after 72 hrs by MTT assay. The format is functional, cell-based. As to conditions: NCI-H1975, 72 h.
Another test concerns MDA-MB-231. The experiment in a line: Antiproliferative activity against human MDA-MB-231 cells after 72 hrs by MTT assay. The format is functional, cell-based. The settings on record: MDA-MB-231, 72 h.
A short description of test [2]: Antiproliferative activity against human Caki2 cells after 72 hrs by MTT assay. It is filed as functional, cell-based. As to conditions: CAKI-2, 72 h.
Test [3] can be described thus: Antiproliferative activity against human BxPC3 cells after 72 hrs by MTT assay. It is filed as functional, cell-based. The settings on record: BXPC-3, 72 h.
Test [4] can be described thus: Antiangiogenic activity in HRMEC after 72 hrs by MTT assay. It is filed as functional, Homo sapiens.
The test system of another test is HT-29. The experiment in a line: Antiproliferative activity against human HT-29 cells after 72 hrs by MTT assay. It is filed as functional, cell-based. As to conditions: HT-29, 72 h.
The next test has as its system HUVEC. Kind of test: Antiangiogenic activity in HUVEC after 72 hrs by MTT assay. The format is functional, cell-based. As to conditions: Homo sapiens.
The next test has as its system A549. Kind of test: Antiproliferative activity against human A549 cells after 72 hrs by MTT assay. It is filed as functional, cell-based. As to conditions: A549, 72 h.
The next test concerns HepG2. Kind of test: Antiproliferative activity against human HepG2 cells after 72 hrs by MTT assay. It is filed as functional, cell-based. As to conditions: HepG2, 72 h.
Test [5] concerns the target Serine/threonine-protein kinase B-raf (Homo sapiens) (UniProt P15056). The experiment in a line: Inhibition of full length GST-tagged human recombinant BRAF expressed in baculovirus using Fluorescein-MAP2K1 as substrate at 100 nM.
The target of test [6] is Fibroblast growth factor receptor 2 (Homo sapiens) (UniProt P21802). The experiment in a line: Inhibition of His-tagged human recombinant FGFR2 (403 to 822 residues) expressed in baculovirus using Fluorescein-Poly GT as substrate at 100 nM.
Test [7] addresses Platelet-derived growth factor receptor alpha (Homo sapiens, UniProt P16234). Kind of test: Inhibition of full length GST-tagged human recombinant PDGFRalpha expressed in baculovirus using Fluorescein-Poly GT as substrate at 100 nM.
Test [8] deals with Vascular endothelial growth factor receptor 2 (Homo sapiens) (UniProt P35968). The experiment in a line: Inhibition of full length His-tagged human recombinant VEGFR2 expressed in baculovirus using Fluorescein-Poly GT as substrate at 100 nM.
Chain of Vascular endothelial growth factor receptor 2 (Homo sapiens) (P35968 whole entry, the tested form may be a part): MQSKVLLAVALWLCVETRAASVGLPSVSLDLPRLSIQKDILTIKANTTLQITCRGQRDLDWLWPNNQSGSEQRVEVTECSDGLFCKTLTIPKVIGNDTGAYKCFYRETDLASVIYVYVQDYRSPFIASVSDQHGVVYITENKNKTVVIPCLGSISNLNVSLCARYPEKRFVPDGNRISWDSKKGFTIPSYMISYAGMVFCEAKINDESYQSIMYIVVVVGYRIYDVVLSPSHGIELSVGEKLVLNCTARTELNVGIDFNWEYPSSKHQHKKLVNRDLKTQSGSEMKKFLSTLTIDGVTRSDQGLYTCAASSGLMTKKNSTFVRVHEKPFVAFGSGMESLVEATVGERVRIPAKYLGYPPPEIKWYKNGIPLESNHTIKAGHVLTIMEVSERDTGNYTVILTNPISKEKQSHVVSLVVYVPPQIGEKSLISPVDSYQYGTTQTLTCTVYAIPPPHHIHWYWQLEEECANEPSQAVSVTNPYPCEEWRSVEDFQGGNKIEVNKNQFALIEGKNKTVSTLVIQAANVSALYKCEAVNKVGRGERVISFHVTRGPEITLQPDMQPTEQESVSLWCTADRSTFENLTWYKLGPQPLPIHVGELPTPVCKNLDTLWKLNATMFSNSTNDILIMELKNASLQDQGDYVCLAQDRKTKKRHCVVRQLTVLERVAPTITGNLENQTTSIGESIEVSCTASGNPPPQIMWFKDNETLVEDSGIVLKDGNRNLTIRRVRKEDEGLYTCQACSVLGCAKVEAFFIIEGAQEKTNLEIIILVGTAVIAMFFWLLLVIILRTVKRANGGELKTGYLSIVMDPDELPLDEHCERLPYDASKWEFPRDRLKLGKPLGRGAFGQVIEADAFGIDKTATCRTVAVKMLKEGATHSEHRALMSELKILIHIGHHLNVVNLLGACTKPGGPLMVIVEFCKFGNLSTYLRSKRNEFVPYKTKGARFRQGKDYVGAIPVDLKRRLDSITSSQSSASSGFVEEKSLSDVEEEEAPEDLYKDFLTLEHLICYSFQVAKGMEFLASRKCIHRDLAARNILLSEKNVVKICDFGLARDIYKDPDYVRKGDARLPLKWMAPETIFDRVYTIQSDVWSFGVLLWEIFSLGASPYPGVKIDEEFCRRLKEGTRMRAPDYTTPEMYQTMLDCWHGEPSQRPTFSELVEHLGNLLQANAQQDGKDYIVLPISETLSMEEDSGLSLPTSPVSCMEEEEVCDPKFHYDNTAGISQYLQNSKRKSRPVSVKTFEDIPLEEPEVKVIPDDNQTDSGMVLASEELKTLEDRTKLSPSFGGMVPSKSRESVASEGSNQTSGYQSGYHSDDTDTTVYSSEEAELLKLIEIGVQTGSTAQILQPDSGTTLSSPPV
In test [9] the target is Epidermal growth factor receptor (Homo sapiens, UniProt P00533). The experiment in a line: Inhibition of GST-tagged human recombinant EGFR (668 to1210 residues) expressed in baculovirus using Fluorescein-Poly GT as substrate at 100 nM.
Chain of Epidermal growth factor receptor (P00533 whole entry, the tested form may be a part): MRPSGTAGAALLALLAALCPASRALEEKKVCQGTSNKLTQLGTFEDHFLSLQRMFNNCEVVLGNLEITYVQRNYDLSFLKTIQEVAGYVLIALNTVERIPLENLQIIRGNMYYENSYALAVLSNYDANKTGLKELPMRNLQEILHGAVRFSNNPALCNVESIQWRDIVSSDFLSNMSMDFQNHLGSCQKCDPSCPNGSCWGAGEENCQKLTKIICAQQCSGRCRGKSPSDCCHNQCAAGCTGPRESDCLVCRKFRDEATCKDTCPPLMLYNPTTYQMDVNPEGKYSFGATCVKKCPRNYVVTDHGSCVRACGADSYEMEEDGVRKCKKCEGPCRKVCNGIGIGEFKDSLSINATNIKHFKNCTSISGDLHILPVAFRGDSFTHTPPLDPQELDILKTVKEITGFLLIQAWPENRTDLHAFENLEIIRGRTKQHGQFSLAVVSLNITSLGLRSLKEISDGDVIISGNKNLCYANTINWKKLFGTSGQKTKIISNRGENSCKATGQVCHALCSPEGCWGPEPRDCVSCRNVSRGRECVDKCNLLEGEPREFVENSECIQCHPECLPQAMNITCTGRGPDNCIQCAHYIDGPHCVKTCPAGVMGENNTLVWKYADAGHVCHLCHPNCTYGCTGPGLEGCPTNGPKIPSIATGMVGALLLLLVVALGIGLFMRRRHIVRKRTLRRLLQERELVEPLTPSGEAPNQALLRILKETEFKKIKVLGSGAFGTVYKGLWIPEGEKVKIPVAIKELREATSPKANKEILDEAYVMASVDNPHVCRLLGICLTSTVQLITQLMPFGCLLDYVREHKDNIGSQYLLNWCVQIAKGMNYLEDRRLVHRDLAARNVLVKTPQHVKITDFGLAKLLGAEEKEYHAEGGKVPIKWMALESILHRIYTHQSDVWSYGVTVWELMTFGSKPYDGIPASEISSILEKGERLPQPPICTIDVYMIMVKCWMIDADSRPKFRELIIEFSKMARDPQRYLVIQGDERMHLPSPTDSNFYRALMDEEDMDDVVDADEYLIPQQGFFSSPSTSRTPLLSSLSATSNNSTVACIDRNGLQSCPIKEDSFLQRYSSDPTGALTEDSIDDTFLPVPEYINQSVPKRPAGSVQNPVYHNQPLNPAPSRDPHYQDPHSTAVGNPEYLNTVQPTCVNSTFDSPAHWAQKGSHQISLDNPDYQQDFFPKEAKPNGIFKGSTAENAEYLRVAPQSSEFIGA
Test [10] has as its target Proto-oncogene tyrosine-protein kinase Src (Homo sapiens, UniProt P12931). The experiment in a line: Inhibition of full length His-tagged human recombinant cSRC expressed in baculovirus using Fluorescein-Poly GT as substrate at 100 nM.
Another test deals with PBMC. Kind of test: Hematotoxicity in human PHA/IL2-stimulated PBMC. It is filed as cell-based.

Some results are limits rather than exact numbers.

Chain of Platelet-derived growth factor receptor alpha (P16234 whole entry): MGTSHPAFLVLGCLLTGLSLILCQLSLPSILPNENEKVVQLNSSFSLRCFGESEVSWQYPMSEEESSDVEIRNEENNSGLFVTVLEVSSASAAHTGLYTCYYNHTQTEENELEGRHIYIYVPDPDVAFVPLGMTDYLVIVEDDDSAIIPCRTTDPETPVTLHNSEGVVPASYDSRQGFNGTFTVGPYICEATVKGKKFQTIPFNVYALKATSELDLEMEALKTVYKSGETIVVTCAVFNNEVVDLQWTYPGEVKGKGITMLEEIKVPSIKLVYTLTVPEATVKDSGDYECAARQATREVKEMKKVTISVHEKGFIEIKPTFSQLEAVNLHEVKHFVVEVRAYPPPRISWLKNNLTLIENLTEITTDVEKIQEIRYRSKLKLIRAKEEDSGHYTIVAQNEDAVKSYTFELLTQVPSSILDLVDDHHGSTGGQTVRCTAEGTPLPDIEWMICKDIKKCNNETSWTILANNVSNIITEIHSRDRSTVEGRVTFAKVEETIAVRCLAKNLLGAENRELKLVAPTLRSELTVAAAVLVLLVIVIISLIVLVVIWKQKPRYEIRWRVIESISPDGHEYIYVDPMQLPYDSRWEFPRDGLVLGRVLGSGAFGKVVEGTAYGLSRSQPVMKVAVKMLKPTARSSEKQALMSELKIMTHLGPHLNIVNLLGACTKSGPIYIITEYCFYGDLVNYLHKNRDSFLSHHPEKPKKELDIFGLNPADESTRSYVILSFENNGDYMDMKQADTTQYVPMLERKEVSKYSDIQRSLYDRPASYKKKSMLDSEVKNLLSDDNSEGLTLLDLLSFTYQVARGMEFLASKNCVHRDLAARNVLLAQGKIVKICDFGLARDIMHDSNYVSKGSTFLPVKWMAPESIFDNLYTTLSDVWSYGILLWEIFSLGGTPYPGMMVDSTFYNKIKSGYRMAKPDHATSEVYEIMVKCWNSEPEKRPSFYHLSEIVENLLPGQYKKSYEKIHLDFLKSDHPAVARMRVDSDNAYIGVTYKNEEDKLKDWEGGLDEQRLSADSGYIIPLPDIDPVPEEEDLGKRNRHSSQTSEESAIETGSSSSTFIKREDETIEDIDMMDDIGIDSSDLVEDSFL
Chain of Serine/threonine-protein kinase B-raf (Homo sapiens) (P15056 whole entry, the tested form may be a part): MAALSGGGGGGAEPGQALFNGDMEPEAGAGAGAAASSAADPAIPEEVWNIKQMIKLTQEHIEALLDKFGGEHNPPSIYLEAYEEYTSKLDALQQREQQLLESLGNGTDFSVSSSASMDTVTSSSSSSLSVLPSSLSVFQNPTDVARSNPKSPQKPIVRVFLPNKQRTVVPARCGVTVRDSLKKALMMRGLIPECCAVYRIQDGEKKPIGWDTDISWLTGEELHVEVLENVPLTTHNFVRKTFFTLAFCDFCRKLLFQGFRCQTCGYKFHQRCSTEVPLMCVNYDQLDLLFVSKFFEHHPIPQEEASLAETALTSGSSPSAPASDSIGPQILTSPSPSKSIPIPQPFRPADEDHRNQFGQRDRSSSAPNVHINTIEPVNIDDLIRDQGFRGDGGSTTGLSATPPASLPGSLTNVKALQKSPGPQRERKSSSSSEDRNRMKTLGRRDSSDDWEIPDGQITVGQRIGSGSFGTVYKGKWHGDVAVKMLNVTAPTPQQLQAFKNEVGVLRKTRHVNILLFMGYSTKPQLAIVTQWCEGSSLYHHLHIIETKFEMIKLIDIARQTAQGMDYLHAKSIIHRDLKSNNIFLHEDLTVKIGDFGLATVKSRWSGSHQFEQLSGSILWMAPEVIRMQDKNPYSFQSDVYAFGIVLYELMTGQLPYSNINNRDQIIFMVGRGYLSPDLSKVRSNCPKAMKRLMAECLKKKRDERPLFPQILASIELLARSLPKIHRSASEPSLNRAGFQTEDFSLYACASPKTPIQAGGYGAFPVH
Chain of Proto-oncogene tyrosine-protein kinase Src (P12931 2-536 limits assumed): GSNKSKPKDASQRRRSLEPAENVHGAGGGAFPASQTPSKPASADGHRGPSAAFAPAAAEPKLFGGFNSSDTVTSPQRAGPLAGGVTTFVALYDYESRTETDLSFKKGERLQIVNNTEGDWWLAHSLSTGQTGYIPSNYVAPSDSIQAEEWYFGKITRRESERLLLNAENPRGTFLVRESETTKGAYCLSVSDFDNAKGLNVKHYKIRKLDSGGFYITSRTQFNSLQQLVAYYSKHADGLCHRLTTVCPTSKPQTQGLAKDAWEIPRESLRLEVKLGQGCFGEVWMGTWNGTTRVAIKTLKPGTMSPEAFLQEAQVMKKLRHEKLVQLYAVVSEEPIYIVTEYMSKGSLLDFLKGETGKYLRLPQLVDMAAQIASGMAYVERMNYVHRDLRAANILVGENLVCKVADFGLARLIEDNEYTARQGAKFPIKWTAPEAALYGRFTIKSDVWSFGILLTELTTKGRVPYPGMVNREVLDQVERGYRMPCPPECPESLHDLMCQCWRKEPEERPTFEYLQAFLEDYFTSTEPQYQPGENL

As for `CCN(CC)CCNC(=O)c1c(C)[nH]c(/C=C2\C(=O)Nc3ccc(F)cc32)c1C` [SUNITINIB], the concentration giving a half-maximal response (EC50) (in test [1]; in the test with NCI-H1975; in the test with MDA-MB-231; in test [2]; in test [3]) was > 1000 nM in each case.
`CNC(=O)c1cc(Oc2ccc(NC(=O)Nc3ccc(Cl)c(C(F)(F)F)c3)cc2)ccn1` [SORAFENIB]: the half-maximal effective concentration (EC50) was > 1000 nM in test [4]; > 1000 nM with HT-29; > 1000 nM in the test on NCI-H1975; > 1000 nM in the test on MDA-MB-231; > 1000 nM in test [2]; 718 nM with HUVEC. The EC50 in [3] is > 1000 nM; in the test with A549 it was > 1000 nM; in the test with HepG2, 302 nM.
Turning to `CC(=O)c1cc2cc(NCc3cc(NC(=O)c4ccc(CN5CCC(N(C)C)C5)c(C(F)(F)F)c4)ccc3C)cnc2[nH]1` (stereo not given), the 50% effective concentration (EC50) in test [4] was found to be 179 nM; in the test with HT-29 it was 150 nM; in the test on HUVEC, 97 nM; in the test on A549, 204 nM; in the test on HepG2 it was 275 nM. The inhibition in test [5] came out at 56%; in [6], 58%; in [7] it was 73%; in test [8], 71%; in test [9], 94%; in test [10], 91%.
Turning to `CC(=O)c1cc2cc(CCc3cc(NC(=O)c4ccc(CN5CCC(N(C)C)C5)c(C(F)(F)F)c4)ccc3C)cnc2[nH]1` (stereo not given), the EC50 in test [4] was 304 nM; with HT-29 it was 303 nM; with HUVEC, 163 nM; in the test with A549, 293 nM; in the test with HepG2 it was 248 nM. Also, the inhibition in [5] is 60%; in test [6], 81%; in [7] it was 89%; in test [8], 99%; in test [9], 83%; in test [10] it was 97%.
For the molecule `CNC(=O)c1cc(Oc2ccc(NC(=O)Nc3ccc(Cl)c(C(F)(F)F)c3)c(F)c2)ccn1` [REGORAFENIB], the EC50 with HT-29 and in the test on A549 was > 1000 nM in each case.
As to `CN(C)C/C=C/C(=O)Nc1cc2c(Nc3ccc(F)c(Cl)c3)ncnc2cc1O[C@H]1CCOC1` [AFATINIB], the EC50 is 116 nM in the test with NCI-H1975, > 1000 nM with MDA-MB-231 and > 1000 nM in test [3].
Consider `COC(=O)c1cc2cc(NCc3cc(NC(=O)c4ccc5[nH]ccc5c4)ccc3C)cnc2[nH]1`, for which the inhibition is 65% in [5]; -4% in test [6]; 87% in test [7]; 59% in test [8]; 45% in test [9]; 59% in test [10]. Also, the concentration giving a half-maximal response (EC50) in the test with HUVEC is 199 nM; in the test on HepG2, > 1000 nM.
Turning to `COC(=O)c1cc2cc(NCc3cc(NC(=O)c4ccc(CN5CCC(N(C)C)C5)c(C(F)(F)F)c4)ccc3C)cnc2[nH]1` (stereo not given), the inhibition in [5] turned out to be 92%; in [6], 75%; in test [7], 90%; in test [8], 96%; in test [9], 80%; in test [10], 96%. The 50% effective concentration (EC50) in the test on HUVEC stood at 689 nM; in the test on HepG2, 673 nM.
Take `COC(=O)c1cc2cc(COc3cc(NC(=O)c4ccc(CN5CCC(N(C)C)C5)c(C(F)(F)F)c4)ccc3C)cnc2[nH]1` (stereo not given): the inhibition in [5] is 15%; in test [6], 69%; in [7], 96%; in [8], 86%; in test [9] it was 93%; in test [10] it was 87%. The results for the 50% effective concentration (EC50) with HUVEC and in the test on HepG2 were 426 nM and > 1000 nM, respectively.
Turning to `C#Cc1cccc(Nc2ncnc3cc(OCCOC)c(OCCOC)cc23)c1` [ERLOTINIB], the EC50 (in test [1]; in test [4]; in the test with HT-29; in the test with NCI-H1975; with MDA-MB-231; in test [2]) was > 1000 nM each time. In addition, the half-maximal effective concentration (EC50) (in [3]; with A549) was > 1000 nM throughout.
Consider `COC(=O)c1cc2cc(NCc3cc(NC(=O)c4ccc5c(c4)OCO5)ccc3C)cnc2[nH]1`, for which the inhibition in test [5] came to 77%; in test [6], 3%; in test [7], 91%; in [8], 58%; in test [9], 40%; in test [10] it was 68%. In addition, the EC50 in the test with HUVEC was 298 nM; in the test with HepG2 it was > 1000 nM.
`CNC(=O)c1cc2cc(NCc3cc(NC(=O)c4ccc(CN5CCC(N(C)C)C5)c(C(F)(F)F)c4)ccc3C)cnc2[nH]1` (stereo not given): the half-maximal effective concentration (EC50) is 81 nM in test [4]; 227 nM with HT-29; 83 nM with HUVEC; 495 nM with A549; 179 nM in the test with HepG2. The inhibition in test [5] is 93%; in test [6], 98%; in test [7] it was 94%; in [8] it was 87%; in test [9], 101%; in test [10], 99%.
`CNC(=O)c1cc2cc(NCc3cc(NC(=O)c4ccc(CN5CCN(C)CC5)cc4)ccc3C)cnc2[nH]1`: the inhibition was determined as 86% in [5]; 23% in [6]; 95% in test [7]; 93% in test [8]; 99% in [9]; 98% in test [10]. Further, the concentration giving a half-maximal response (EC50) in the test with HUVEC and in the test on HepG2 was > 1000 nM throughout.
`Cc1nc(Nc2ncc(C(=O)Nc3c(C)cccc3Cl)s2)cc(N2CCN(CCO)CC2)n1` [DASATINIB]: the EC50 stood at 1600 nM in the test with PBMC; 232 nM in test [1]; 173 nM in the test on NCI-H1975; 44 nM in the test with MDA-MB-231; 55 nM in test [2]; 33 nM in test [3].
As for `COC(=O)c1cc2cc(NCc3cc(NC(=O)c4cncc(C)c4)ccc3C)cnc2[nH]1`, the inhibition in test [5] came to 95%; in [6], 19%; in test [7], 93%; in test [8], 89%; in test [9], 72%; in [10], 89%. Moreover, the concentration giving a half-maximal response (EC50) was > 1000 nM in the test on HUVEC and 510 nM in the test on HepG2.
In the case of `COC(=O)c1cc2cc(CCc3cc(NC(=O)c4ccc(CN5CCC(N(C)C)C5)c(C(F)(F)F)c4)ccc3C)cnc2[nH]1` (stereo not given), the inhibition in test [5] is 64%; in test [6], 101%; in [7], 105%; in test [8], 102%; in test [9] it was 97%; in test [10], 101%. The EC50 is 171 nM in the test on HUVEC and > 1000 nM in the test with HepG2.
Consider `CC(=O)c1cc2cc(CCc3cc(NC(=O)c4ccc(CN5CCN(C)CC5)cc4)ccc3C)cnc2[nH]1`, for which the inhibition in test [5] stood at 67%; in test [6], 18%; in test [7] it was 86%; in test [8] it was 92%; in test [9], 86%; in test [10], 77%. The EC50 is 118 nM in the test with HUVEC and > 1000 nM in the test on HepG2.
